A short description of data set [1]: Downregulation of RNA polymerase 2 in human Jurkat cells at 5 uM measured after 6 hrs by immunoblotting analysis. The data set is classed as functional.
Data set [2] has as its target RAF proto-oncogene serine/threonine-protein kinase (Homo sapiens) (UniProt P04049). The experiment in a line: Inhibition of ADP(ATP)-biotin probe binding to RAF1 in human Kelly cells at 1 uM incubated for 6 hrs by KiNativ profiling analysis. The data set is classed as cell-based.
Data set [3] is described as follows: Oral bioavailability in Swiss albino mouse at 10 mg/kg measured upto 24 hrs by LC-MS/MS analysis. It is filed as ADME, organism-based. Conditions: in vivo.
For data set [4], the target named is T1, Cyclin-dependent kinase 12/13 (Homo sapiens) (UniProt Q14004+Q9NYV4). In words: Inhibition of CDK12/13 in human jurkat cells assessed as reduction in RNA polymerase 2 CTD phosphorylation at Ser2 residue at 2.5 uM measured after 6 hrs by immunoblotting analysis. It is filed as cell-based.
The target in data set [5] is Cyclin-dependent kinase 7/ cyclin H (Homo sapiens, UniProt P50613). In words: Inhibition of CDK7/Cyclin H (unknown origin). It is filed as protein-complex assay.
Data set [6] concerns the target Calcium/calmodulin-dependent protein kinase type IV (Homo sapiens) (UniProt Q16566). In words: Inhibition of ADP(ATP)-biotin probe binding to CaMK4 in human Kelly cells at 1 uM incubated for 6 hrs by KiNativ profiling analysis. It is filed as cell-based.
Data set [7] concerns the target T2, Ribosomal protein S6 kinase alpha-3 (Homo sapiens, UniProt P51812). The experiment in a line: Inhibition of ADP(ATP)-biotin probe binding to RSK2 domain 1 in human Kelly cells at 1 uM incubated for 6 hrs by KiNativ profiling analysis. The data set is classed as cell-based.
The target in data set [8] is T2, Ribosomal protein S6 kinase alpha-3. In words: Inhibition of human RSK2 by Invitrogen ADAPTA or Z'LYTE biochemical kinase assay.
Data set [9] deals with Cyclin-K (Homo sapiens) (UniProt O75909). The experiment in a line: Binding affinity to CyclinK in CDK12/CyclinK complex (unknown origin) at 10-fold excess concentration incubated for 1 hr by LC-MS analysis.
Data set [10] concerns the target Mitogen-activated protein kinase 10 (Homo sapiens) (UniProt P53779). In words: Inhibition of ADP(ATP)-biotin probe binding to JNK3 in human Kelly cells at 1 uM incubated for 6 hrs by KiNativ profiling analysis. It is filed as cell-based.
Data set [11] concerns TC-71. In words: Antitumor activity against human TC71 cells xenografted in nude mouse assessed as suppression of tumor growth at 10 mg/kg, ip for 21 days by caliper analysis. The data set is classed as functional, organism-based. The following applies: time 21.0 day.
A short description of data set [12]: Downregulation of RNA polymerase 2 CTD phosphorylation at Ser7 residue in human Jurkat cells at 1 uM incubated for 6 hrs by immunoblotting analysis. It is filed as functional.
Data set [13] in a line: Downregulation of RNA polymerase 2 CTD phosphorylation at Ser7 residue in human Jurkat cells at 0.5 uM incubated for 6 hrs by immunoblotting analysis. It is filed as functional.
Data set [14] is described as follows: Downregulation of RNA polymerase 2 CTD phosphorylation at Ser5 residue in human Jurkat cells at 0.5 uM incubated for 6 hrs by immunoblotting analysis. The data set is classed as functional.
Data set [15] has as its target CDK12/Cyclin K (Homo sapiens, UniProt Q9NYV4). The experiment in a line: Inhibition of human recombinant CDK12/CyclinK assessed as reduction in substrate phosphorylation using His-c-Myc as substrate preincubated with enzyme for 5 mins followed by substrate addition for 15 mins in presence of [gamma 32P-ATP] by radioactive kinase assay. The data set is classed as protein-complex assay.

Data set [16] addresses T1, Cyclin-dependent kinase 12/13 (Homo sapiens). The experiment in a line: Inhibition of CDK12/13 in human jurkat cells assessed as reduction in RNA polymerase 2 CTD phosphorylation at Ser2 residue at 5 uM measured after 6 hrs by immunoblotting analysis. The data set is classed as cell-based.
Data set [17] is described as follows: Antiproliferative activity against human Kelly cells harboring CDK12 C1039F mutant assessed as reduction in cell viability incubated for 72 hrs by CellTiter-Glo assay. The data set is classed as functional, cell-based.
Data set [18] addresses Cyclin-dependent kinase 7 (Homo sapiens) (UniProt P50613). In words: Inhibition of ADP(ATP)-biotin probe binding to CDK7 in human Kelly cells at 1 uM incubated for 6 hrs by KiNativ profiling analysis. The data set is classed as cell-based.
The target of data set [19] is Cyclin-dependent kinase 12 (Homo sapiens) (UniProt Q9NYV4). In words: Covalent binding affinity to CDK12 in CDK12/CyclinK complex (unknown origin) assessed as covalent labeling of Cys1039 in gluc-protease digested CDK12 peptide 1025LASKMAPPDLPHWQDCHE1041 by CE-MS analysis.
For data set [20] the target is unchanged. In words: Binding affinity to CDK12 in CDK12/CyclinK complex (unknown origin) assessed as increase in CDK12 mass at 10-fold excess concentration incubated for 1 hr by LC-MS analysis.
Data set [21] in a line: Downregulation of RNA polymerase 2 CTD phosphorylation at Ser7 residue in human Jurkat cells at 2.5 uM incubated for 6 hrs by immunoblotting analysis. The data set is classed as functional.
The nature of data set [22]: Downregulation of RNA polymerase 2 CTD phosphorylation at Ser5 residue in human Jurkat cells at 1 uM incubated for 6 hrs by immunoblotting analysis. The data set is classed as functional.
The target of data set [23] is Cyclin-dependent kinase 7 (Homo sapiens) (UniProt P50613). In words: Inhibition of THZ1-biotin binding from CDK7 in human Jurkat cells at 500 nM incubated for 6 hrs by CyclinH antibody based competitive pull down assay. The data set is classed as cell-based.
The target of data set [24] is T1, Cyclin-dependent kinase 12/13 (Homo sapiens). The experiment in a line: Inhibition of THZ1-biotin binding from CDK12/13 in human Jurkat cells incubated for 3 hrs followed by drug wash-out for 24 hrs by competitive pull down assay. The data set is classed as cell-based.

The source made the active and inactive calls. The rule behind the calls is not given here.

Sequence of Cyclin-dependent kinase 7 (Homo sapiens) (P50613 whole entry): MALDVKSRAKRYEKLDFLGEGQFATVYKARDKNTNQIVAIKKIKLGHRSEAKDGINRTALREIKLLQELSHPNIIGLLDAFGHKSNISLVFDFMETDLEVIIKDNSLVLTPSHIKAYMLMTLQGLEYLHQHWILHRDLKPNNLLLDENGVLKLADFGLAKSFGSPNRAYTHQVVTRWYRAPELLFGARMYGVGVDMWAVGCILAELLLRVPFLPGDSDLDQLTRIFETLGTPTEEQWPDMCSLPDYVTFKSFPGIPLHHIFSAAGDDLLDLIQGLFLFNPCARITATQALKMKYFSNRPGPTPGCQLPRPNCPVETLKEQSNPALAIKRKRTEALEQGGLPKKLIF
Sequence of Cyclin-dependent kinase 12 (Homo sapiens) (Q9NYV4 whole entry, looked up): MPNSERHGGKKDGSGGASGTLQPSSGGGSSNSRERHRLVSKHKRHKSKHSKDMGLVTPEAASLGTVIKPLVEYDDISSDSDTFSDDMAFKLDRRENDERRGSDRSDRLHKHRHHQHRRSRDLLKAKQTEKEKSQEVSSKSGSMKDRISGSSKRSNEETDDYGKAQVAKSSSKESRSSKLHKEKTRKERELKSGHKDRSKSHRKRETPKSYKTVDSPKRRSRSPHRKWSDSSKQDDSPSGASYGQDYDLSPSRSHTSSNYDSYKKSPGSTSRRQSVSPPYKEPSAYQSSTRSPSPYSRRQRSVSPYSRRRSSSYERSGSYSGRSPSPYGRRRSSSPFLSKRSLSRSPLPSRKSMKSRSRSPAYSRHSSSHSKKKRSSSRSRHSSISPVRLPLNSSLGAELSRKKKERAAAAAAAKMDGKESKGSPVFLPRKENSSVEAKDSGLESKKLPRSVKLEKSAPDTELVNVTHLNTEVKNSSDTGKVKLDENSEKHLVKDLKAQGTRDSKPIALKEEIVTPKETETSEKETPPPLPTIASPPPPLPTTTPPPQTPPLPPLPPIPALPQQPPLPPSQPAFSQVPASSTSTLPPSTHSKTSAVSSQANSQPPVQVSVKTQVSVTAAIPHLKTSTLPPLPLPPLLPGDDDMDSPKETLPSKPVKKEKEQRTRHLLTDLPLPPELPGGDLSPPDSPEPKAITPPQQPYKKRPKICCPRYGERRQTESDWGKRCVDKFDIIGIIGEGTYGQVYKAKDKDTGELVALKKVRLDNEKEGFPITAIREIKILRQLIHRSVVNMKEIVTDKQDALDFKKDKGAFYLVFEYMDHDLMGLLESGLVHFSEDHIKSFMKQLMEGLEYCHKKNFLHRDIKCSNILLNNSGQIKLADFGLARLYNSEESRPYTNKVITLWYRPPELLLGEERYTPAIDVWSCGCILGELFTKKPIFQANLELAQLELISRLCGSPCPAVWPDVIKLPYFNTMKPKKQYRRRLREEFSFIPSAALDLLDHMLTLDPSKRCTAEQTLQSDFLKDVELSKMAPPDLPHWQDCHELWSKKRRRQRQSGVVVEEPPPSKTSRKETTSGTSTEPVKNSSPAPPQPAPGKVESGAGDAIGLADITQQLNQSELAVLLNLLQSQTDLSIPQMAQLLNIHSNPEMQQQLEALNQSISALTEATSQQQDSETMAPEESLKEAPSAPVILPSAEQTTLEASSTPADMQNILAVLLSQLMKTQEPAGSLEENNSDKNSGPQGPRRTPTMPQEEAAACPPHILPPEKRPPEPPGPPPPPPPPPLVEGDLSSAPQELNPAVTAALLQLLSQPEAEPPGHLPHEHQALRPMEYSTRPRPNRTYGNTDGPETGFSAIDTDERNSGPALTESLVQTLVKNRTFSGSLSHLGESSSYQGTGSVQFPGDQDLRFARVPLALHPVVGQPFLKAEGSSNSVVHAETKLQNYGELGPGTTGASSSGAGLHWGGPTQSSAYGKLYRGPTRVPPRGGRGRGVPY
T2 sequence (P51812 whole entry, the tested form may be a part): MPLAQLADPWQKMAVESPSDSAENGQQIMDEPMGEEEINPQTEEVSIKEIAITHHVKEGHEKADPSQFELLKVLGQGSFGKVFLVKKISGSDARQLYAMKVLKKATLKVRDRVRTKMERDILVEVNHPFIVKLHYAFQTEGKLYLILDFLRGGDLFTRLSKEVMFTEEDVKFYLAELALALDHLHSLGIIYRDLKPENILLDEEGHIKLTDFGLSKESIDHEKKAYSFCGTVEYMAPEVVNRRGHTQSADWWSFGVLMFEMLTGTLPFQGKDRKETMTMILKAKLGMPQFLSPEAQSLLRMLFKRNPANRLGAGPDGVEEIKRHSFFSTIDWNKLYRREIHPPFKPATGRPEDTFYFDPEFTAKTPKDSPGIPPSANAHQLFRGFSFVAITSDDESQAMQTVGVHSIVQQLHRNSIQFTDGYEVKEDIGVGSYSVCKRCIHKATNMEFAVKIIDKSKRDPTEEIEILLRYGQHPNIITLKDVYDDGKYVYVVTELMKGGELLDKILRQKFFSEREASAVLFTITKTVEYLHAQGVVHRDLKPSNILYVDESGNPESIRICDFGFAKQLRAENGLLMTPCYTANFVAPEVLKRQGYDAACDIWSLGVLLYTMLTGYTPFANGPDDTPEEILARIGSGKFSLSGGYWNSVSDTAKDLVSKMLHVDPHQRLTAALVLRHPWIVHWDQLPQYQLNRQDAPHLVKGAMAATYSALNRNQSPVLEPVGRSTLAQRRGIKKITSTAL
Sequence of RAF proto-oncogene serine/threonine-protein kinase (Homo sapiens) (P04049 whole entry): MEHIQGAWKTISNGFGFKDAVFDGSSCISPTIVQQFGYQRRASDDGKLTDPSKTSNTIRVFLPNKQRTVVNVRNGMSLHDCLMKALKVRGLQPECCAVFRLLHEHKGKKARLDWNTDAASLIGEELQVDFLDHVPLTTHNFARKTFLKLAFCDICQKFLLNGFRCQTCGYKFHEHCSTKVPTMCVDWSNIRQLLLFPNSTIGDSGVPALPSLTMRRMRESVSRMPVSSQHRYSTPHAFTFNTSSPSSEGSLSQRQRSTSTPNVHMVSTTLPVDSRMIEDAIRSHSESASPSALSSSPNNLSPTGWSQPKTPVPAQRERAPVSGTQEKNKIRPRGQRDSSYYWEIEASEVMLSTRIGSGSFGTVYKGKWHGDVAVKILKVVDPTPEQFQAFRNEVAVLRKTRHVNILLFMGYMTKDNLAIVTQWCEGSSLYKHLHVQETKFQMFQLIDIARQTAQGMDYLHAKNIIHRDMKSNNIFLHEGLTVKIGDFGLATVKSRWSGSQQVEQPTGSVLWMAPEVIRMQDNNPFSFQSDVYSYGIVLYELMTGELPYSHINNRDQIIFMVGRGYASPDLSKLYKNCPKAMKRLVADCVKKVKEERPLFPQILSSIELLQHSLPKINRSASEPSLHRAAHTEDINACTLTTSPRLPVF
Sequence of Cyclin-K (Homo sapiens) (O75909 whole entry): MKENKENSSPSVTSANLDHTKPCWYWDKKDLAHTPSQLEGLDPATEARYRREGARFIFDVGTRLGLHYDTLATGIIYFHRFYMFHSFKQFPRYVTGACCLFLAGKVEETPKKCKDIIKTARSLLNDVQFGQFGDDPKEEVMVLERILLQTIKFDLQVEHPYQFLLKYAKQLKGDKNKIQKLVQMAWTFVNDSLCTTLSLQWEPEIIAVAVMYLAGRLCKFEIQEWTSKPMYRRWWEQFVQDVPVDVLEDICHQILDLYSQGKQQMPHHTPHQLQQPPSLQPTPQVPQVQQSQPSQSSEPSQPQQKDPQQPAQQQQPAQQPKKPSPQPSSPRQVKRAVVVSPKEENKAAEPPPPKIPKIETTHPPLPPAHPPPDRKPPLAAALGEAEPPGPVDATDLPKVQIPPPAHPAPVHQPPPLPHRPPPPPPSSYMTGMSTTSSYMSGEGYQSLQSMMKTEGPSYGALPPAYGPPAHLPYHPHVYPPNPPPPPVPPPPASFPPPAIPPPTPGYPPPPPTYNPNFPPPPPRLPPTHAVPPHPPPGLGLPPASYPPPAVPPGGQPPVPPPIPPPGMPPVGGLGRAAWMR
Sequence of CDK12/Cyclin K (O75909 whole entry): as above
Sequence of CDK12/Cyclin K (Q9NYV4 whole entry): as the sequence (Q9NYV4 whole entry, looked up) above
Sequence of Calcium/calmodulin-dependent protein kinase type IV (Homo sapiens) (Q16566 whole entry, the tested form may be a part): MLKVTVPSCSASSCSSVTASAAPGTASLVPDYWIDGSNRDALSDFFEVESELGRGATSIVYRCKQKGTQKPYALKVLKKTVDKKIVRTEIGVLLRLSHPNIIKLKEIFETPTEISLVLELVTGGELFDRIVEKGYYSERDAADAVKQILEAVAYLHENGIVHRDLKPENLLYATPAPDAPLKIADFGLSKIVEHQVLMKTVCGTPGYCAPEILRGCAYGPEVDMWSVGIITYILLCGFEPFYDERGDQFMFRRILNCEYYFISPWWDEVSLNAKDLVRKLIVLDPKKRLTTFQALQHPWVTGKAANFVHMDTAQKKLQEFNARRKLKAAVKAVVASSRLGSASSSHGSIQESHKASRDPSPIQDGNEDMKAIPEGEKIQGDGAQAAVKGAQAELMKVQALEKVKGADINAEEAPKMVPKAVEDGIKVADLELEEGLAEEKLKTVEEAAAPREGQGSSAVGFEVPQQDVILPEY
Sequence of Mitogen-activated protein kinase 10 (Homo sapiens) (P53779 whole entry): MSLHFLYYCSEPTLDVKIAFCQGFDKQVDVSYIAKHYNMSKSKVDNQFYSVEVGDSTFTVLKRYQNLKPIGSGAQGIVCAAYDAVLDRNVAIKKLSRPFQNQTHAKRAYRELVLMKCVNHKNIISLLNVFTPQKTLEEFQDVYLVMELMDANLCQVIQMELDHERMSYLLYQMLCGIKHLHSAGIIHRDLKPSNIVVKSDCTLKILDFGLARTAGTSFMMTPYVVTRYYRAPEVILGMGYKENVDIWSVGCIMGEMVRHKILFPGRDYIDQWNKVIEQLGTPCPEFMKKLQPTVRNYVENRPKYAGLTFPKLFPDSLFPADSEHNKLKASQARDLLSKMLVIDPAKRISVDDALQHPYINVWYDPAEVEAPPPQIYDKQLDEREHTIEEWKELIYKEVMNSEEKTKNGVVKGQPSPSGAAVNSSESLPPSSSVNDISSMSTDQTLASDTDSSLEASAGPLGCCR

In data set [1], `CN(C)C/C=C/C(=O)Nc1ccc(O[C@@H]2CCC[C@@H](Nc3ncc(Cl)c(-c4c[nH]c5ccccc45)n3)C2)cc1` showed an inhibition at 5 µM of 38%. Besides, the inhibition in data set [2] is 37.8%; in data set [4], 87%; in data set [6], 38.2%; in [7], 46%; in data set [10] it was 45.9%; in data set [16], 89%. Moreover, in [18], the inhibition was determined as 39.2%. In [3], this molecule had an F of 17%. For the same molecule, the IC50 in data set [5] is 187 nM; in [8] it was 4500 nM; in data set [15] it was 156 nM; in [17], 225 nM. Further, the result in [9] was inactive. Further, the result in data set [11], in data set [19] and in [20] was Active. The inhibition at 1 µM in data set [12] was 41%; in data set [22] it was 32%. The inhibition at 0.5 µM in data set [13] and in [14] was 0% throughout. At 2.5 µM the inhibition in [21] was 58%. In addition, the inhibition entry in data set [23] is “inactive”. Further, in [24], the inhibition result was “Active”.

These data come from ChEMBL document CHEMBL4828703, “Structure-activity relationship study of THZ531 derivatives enables the discovery of BSJ-01-175 as a dual CDK12/13 covalent inhibitor with efficacy in Ewing sarcoma” (Eur J Med Chem, 2021).
